Measurements reported in patent publication US4831026A, “2-oxa-isocephem compounds, compositions containing same and processes of using” (Otsuka Pharmaceutical Co., Ltd., priority 1985, dated 1989).
Where two headings read alike, the source gives them in different places.

Tests used:
S. marcescens IFO-12648 = experiment: Antimicrobial activity test: MIC by the agar plate dilution method, S. marcescens IFO-12648; type: cell-based
Procedure: (§1) In order to investigate the in vitro activity of the under-mentioned compounds against various bacteria, the minimal inhibitory concentration (MIC) values were determined by the agar plate dilution method [see Chemotherapy, 22, 1126-1128 (1974)].
(§2) Each test inoculum was adjusted to 1×10^6 cells/ml (O.D., 600 mμ: 0.07-0.16).

K. pneumoniae NCTC-9632 = experiment: Antimicrobial activity test: MIC by the agar plate dilution method, K. pneumoniae NCTC-9632; type: cell-based; details: inoculum 1×10^6 cells/ml
Procedure: as §1, §2

P. mirabilis 1287 = experiment: Antimicrobial activity test: MIC by the agar plate dilution method, P. mirabilis 1287; type: cell-based
Procedure: as §1, §2

S. aureus FDA-209-p = experiment: Antimicrobial activity test: MIC by the agar plate dilution method, S. aureus FDA-209-p; type: cell-based, Staphylococcus aureus; details: inoculum 1×10^6 cells/ml
Procedure: as §1, §2

M. morganii ATCC-25830 = experiment: Antimicrobial activity test: MIC by the agar plate dilution method, M. morganii ATCC-25830; type: cell-based; details: inoculum 1×10^6 cells/ml
Procedure: as §1, §2

E. coli No. 29 = experiment: Antimicrobial activity test: MIC by the agar plate dilution method, E. coli No. 29; type: cell-based
Procedure: as §1, §2

P. aeruginosa NCTC-10490 = experiment: Antimicrobial activity test: MIC by the agar plate dilution method, P. aeruginosa NCTC-10490; type: cell-based; details: inoculum 1×10^6 cells/ml
Procedure: as §1, §2

[1] = P. mirabilis 1287, inoculum 1×10^6 cells/ml
[2] = S. marcescens IFO-12648, inoculum 1×10^6 cells/ml
[3] = E. coli No. 29, inoculum 1×10^6 cells/ml

| Substance | MIC (S. marcescens IFO-12648) | MIC (K. pneumoniae NCTC-9632) | MIC (P. mirabilis 1287; [1]) | MIC (S. aureus FDA-209-p) | MIC (M. morganii ATCC-25830) | MIC (E. coli No. 29) | MIC (P. aeruginosa NCTC-10490) | MIC (S. marcescens IFO-12648; [2]) | MIC (E. coli No. 29; [3]) | MIC (P. mirabilis 1287) |
| --- | --- | --- | --- | --- | --- | --- | --- | --- | --- | --- |
| 1-Acetoxyethyl 7-[2-(2-aminothiazol-4-yl)-2-methoxyiminoacetamido]-3-[(1,3,4-thiadiazol-2-yl)thiomethyl]-Δ^3 -O-2-isocephem-4-carboxylate (syn-isomer) [Example 13] | 0.78 µg/mL | 0.78 µg/mL | 0.1 µg/mL | 0.39 µg/mL | 0.39 µg/mL | 0.39 µg/mL | 0.78 µg/mL |  |  |  |
| 7-2-(Thiazol-4-yl)-2-tert-butoxycarbonylmethoxyiminoacetamido]-Δ^3 -O-2-isocephem-4-carboxylic acid (syn-isomer) [Example 19] |  | ≤ 0.025 µg/mL | ≤ 0.025 µg/mL | 0.39 µg/mL | ≤ 0.025 µg/mL |  | 3.13 µg/mL | 0.05 µg/mL | ≤ 0.025 µg/mL |  |
| 7-[2-(2-Aminothiazol-4-yl)-2-(2-chloroethoxy)iminoacetamido]-3-[(1,3,4-thiadiazol-2-yl)thiomethyl]-Δ^3 -O-2-isocephem-4-carboxylic acid (syn-isomer) [No. 9] | 0.78 µg/mL | 0.39 µg/mL |  | 0.05 µg/mL | 0.78 µg/mL |  | 0.78 µg/mL |  | 0.2 µg/mL | 0.39 µg/mL |
| 7-[2-(2-Aminothiazol-4-yl)-2-(2-fluoroethoxy)iminoacetamido]-3-[(1,3,4-thiadiazol-2-yl)thiomethyl-]-Δ^3 -O-2-isocephem-4-carboxylic acid trifluoroacetate (syn-isomer) [Example 49] |  | ≤ 0.025 µg/mL | ≤ 0.025 µg/mL |  | ≤ 0.025 µg/mL |  | 1.56 µg/mL | 0.1 µg/mL | ≤ 0.025 µg/mL |  |
| 7-[2-(2-Aminothiazol-4-yl)-2-[(pyrazol-3-yl)methoxyiminoacetamido]-3-[(1,3,4-thiadiazol-2-yl)thiomethyl]-Δ^3 -O-2-isocephem-4-carboxylic acid dihydrochloride (syn-isomer) [Example 24] | 0.39 µg/mL | 0.39 µg/mL | ≤ 0.025 µg/mL |  | 0.1 µg/mL | 0.39 µg/mL | 12.5 µg/mL |  |  |  |
| 7-[2-(2-Chloroacetamidothiazol-4-yl)-2-methoxyiminoacetamido]-3-[(1,3,4-thiadiazol-2-yl)thiomethyl]-Δ^3 -O-2-isocephem-4-carboxylic acid (syn-isomer) [Example 11] |  | 0.2 µg/mL | ≤ 0.025 µg/mL |  | ≤ 0.025 µg/mL |  | 6.25 µg/mL | 0.2 µg/mL | 0.05 µg/mL |  |
| (6S,7S)-7-[2-(2-Aminothiazol-4-yl)-2-cyclopropylmethyloxyiminoacetamido]-3- [(1,2,3-thiadiazol-5-yl)thiomethyl]-Δ^3 -O-2-isocephem-4-carboxylic acid (syn-isomer) [Example 65] | 0.78 µg/mL | 0.39 µg/mL | 0.2 µg/mL |  | 0.05 µg/mL |  | 0.78 µg/mL |  | 0.1 µg/mL |  |
| Benzhydryl 7-[2-(2-formamidothiazol-4-yl)-2-(2-chloroethoxy)iminoacetamido-]-3-[(1,3,4-thiadiazol-2-yl)thiomethyl]-Δ^3 -O-2-isocephem-4-carboxylate (syn-isomer) [Example 32] | 0.78 µg/mL | 0.1 µg/mL | 0.05 µg/mL | 0.39 µg/mL | 0.1 µg/mL |  |  |  | 0.05 µg/mL |  |
| Benzhydryl 7-[2-(2-tritylaminothiazol-4-yl)-2 -methoxyiminoacetamido]-3-[(1,2,3-thiadiazol-5-yl)thiomethyl]-Δ^3 -O-2-isocephem-4-carboxylate (syn-isomer) [Example 51] |  | ≤ 0.025 µg/mL | ≤ 0.025 µg/mL |  | ≤ 0.025 µg/mL |  | 0.78 µg/mL | 0.1 µg/mL | ≤ 0.025 µg/mL |  |
| Benzhydryl 7-[2-(2-tritylaminothiazol-4-yl)-2-[(3-butenyl)oxyimino]acetamido]-3-[(1,3,4-thiadiazol-2-yl)thiomethyl]-Δ^3 -O-2-isocephem-4-carboxylate (syn-isomer) [Example 39] | 0.78 µg/mL | 0.2 µg/mL | 0.2 µg/mL |  | 0.39 µg/mL |  | 1.56 µg/mL |  | 0.2 µg/mL |  |
| Benzhydryl 7-[2-(2-tritylaminothiazol-4-yl)-2-allyloxyiminoacetamido]-3-[(1,3,4-thiadiazol-2-yl)thiomethyl]-Δ^3 -O-2-isocephem-4-carboxylate (syn-isomer) [Example 43] |  | 0.78 µg/mL | 0.1 µg/mL |  | 1.56 µg/mL | 0.39 µg/mL | 50 µg/mL | 6.25 µg/mL |  |  |
| Benzhydryl 7-[2-(2-tritylaminothiazol-4-yl)-2-benzyloxyiminoacetamido]-3-[(1,3,4-thiadiazol-2-yl)thiomethyl]-Δ^3 -O-2-isocephem-4-carboxylate (syn-isomer) [Example 47] |  | ≤ 0.025 µg/mL | ≤ 0.025 µg/mL |  | ≤ 0.025 µg/mL |  | 3.13 µg/mL | 0.1 µg/mL | ≤ 0.025 µg/mL |  |
| Benzhydryl 7-[2-(2-tritylaminothiazol-4-yl)-2-cyanomethyloxyiminoacetamido]-3-[(1,2,3-thiadiazol-5-yl)thiomethyl]-Δ^3 -O-2-isocephem-4-carboxylate (syn-isomer) [Example 52] | 0.78 µg/mL | 0.2 µg/mL | 0.1 µg/mL |  | 0.05 µg/mL |  | 0.39 µg/mL |  | 0.1 µg/mL |  |
| Benzhydryl 7-[2-(2-tritylaminothiazol-4-yl)-2-cyclopropylmethyloxyiminoacetamido]-3-[(1,2,3-thiadiazol-5-yl)thiomethyl]-Δ^3 -O-2-isocephem-4-carboxylate (syn-isomer) [Example 53] | 0.78 µg/mL |  | 0.1 µg/mL |  | 0.05 µg/mL |  | 0.39 µg/mL |  | 0.05 µg/mL |  |
| Benzhydryl (6S,7S)-7-[2-(2-aminothiazol-4-yl)-2-cyclopropylmethyloxyiminoacetamido]-3-[(1,2,3-thiadiazol-5-yl)thiomethyl]-Δ^3 -O-2-isocephem-4-carboxylate (syn-isomer) [Example 64] |  | ≤ 0.025 µg/mL | ≤ 0.025 µg/mL |  | ≤ 0.025 µg/mL |  | 1.56 µg/mL | 0.05 µg/mL | ≤ 0.025 µg/mL |  |
| Benzhydryl (6S,7S)-7-[2-(2-tritylaminothiazol-4-yl)-2-cyclopropylmethyloxyiminoacetamido]-3-[(1,2,3-thiadiazol-5-yl)thiomethyl]-Δ^3 -O-2-isocephem-4-carboxylate (syn-isomer) [Example 63] |  | ≤ 0.025 µg/mL | ≤ 0.025 µg/mL |  |  |  | 0.78 µg/mL | 0.05 µg/mL | ≤ 0.025 µg/mL |  |
| Benzhydryl (6S,7S)-7-[2-(2-tritylaminothiazol-4-yl)-2-methoxyiminoacetamido]-3-[(1,3,4-thiadiazol-2-yl)thiomethyl]-Δ^3 -O-2-isocephem-4-carboxylate (syn-isomer) [Example 58] | 0.39 µg/mL | ≤ 0.025 µg/mL | ≤ 0.025 µg/mL | 0.39 µg/mL |  |  | 25 µg/mL |  | ≤ 0.025 µg/mL |  |
| Benzhydryl (6S,7S)-7-[2-(2-tritylaminothiazol-4-yl)- 2-cyanomethoxyiminoacetamido]-3-[(1,3,4-thiadiazol-2-yl)thiomethyl]-Δ^3 -O-2-isocephem-4-carboxylate (syn-isomer) [Example 61] | 0.78 µg/mL | 0.05 µg/mL | ≤ 0.025 µg/mL |  | ≤ 0.025 µg/mL |  | 3.13 µg/mL |  | 0.05 µg/mL |  |
| Benzyl 7-[2-(2-chloroacetamidothiazol-4-yl)-2-methoxyiminoacetamido]-3-[(1,3,4-thiadiazol-2-yl)thiomethyl]-Δ^3 -O-2-isocephem-4-carboxylate (syn-isomer) [Example 10] | 0.39 µg/mL | 0.39 µg/mL | 0.1 µg/mL | 0.39 µg/mL | 0.2 µg/mL | 0.39 µg/mL |  |  |  |  |
| Benzyl 7-[2-(2-chloroacetamidothiazol-4-yl)-2-methoxyiminoacetamido]-3-[(carbamoyloxy)methyl]-Δ^3 -O-2-isocephem-4-carboxylate (syn-isomer) [Example 1] |  |  | ≤ 0.025 µg/mL |  |  |  | 3.13 µg/mL | 0.1 µg/mL | ≤ 0.025 µg/mL |  |
| Benzyl 7-[2-(2-chloroacetamidothiazol-4-yl)-2allyloxyiminoacetamido]-3-[(1,3,4-thiadiazol-2-yl)thiomethyl]-Δ^3 -O-2-isocephem-4-carboxylate (syn-isomer) [Example 14] |  | 0.1 µg/mL | ≤ 0.025 µg/mL |  |  |  | 3.13 µg/mL | 0.1 µg/mL | 0.05 µg/mL |  |
